What was measured:
Mus musculus = test: In vivo inhibition of LPS-induced TNF production in mice 50 mg/Kg.; type: functional
[1] = biological target: T1, Prostaglandin G/H synthase 1 (Ovis aries, UniProt P05979); test: Inhibitory concentration against Prostaglandin H2 synthase 1 (PGHS-1) from ram seminal vesicle
T1 sequence (P05979 whole entry): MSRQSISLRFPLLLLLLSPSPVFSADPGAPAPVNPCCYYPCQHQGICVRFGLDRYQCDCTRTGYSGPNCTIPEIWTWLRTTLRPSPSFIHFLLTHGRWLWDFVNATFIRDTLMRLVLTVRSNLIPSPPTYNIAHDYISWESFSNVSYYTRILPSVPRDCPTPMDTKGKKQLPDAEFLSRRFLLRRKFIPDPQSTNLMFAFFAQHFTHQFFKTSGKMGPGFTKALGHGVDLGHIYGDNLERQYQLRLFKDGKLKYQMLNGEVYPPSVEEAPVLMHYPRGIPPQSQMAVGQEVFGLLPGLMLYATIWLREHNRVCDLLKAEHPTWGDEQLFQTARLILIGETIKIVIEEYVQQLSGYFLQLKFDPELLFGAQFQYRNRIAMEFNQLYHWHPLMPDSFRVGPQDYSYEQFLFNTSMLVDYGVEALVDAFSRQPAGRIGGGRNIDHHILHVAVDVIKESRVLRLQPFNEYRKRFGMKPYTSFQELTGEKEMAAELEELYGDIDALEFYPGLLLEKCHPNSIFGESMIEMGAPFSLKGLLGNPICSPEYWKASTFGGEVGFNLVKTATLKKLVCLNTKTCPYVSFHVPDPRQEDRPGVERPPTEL

[2] = biological target: T2, Polyunsaturated fatty acid 5-lipoxygenase (Rattus norvegicus, UniProt P12527); test: Inhibitory concentration against 5-lipoxygenase in rat RBL-1 cells; type: cell-based
T2 sequence (P12527 whole entry): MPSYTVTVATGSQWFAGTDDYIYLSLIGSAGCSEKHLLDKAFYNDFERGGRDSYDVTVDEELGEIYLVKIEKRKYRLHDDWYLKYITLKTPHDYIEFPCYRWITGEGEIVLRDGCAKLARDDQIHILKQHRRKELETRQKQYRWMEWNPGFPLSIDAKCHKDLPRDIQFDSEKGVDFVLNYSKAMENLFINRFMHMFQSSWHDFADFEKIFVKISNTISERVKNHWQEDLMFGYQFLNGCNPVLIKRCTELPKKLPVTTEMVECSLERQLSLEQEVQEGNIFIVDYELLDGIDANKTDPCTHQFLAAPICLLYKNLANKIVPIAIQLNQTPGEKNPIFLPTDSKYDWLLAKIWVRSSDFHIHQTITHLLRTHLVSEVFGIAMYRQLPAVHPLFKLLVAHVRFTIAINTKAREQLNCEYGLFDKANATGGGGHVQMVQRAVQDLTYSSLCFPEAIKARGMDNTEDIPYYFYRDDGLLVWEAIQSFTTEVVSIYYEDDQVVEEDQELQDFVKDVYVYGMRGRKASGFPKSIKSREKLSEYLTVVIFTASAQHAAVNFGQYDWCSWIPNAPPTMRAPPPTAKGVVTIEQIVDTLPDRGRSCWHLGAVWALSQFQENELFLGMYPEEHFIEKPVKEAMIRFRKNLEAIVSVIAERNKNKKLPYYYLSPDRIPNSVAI

MAP kinase p38 = MAP kinase p38 (Homo sapiens, UniProt O15264+Q15759+Q16539+P53778); test: In vitro inhibitory concentration against radioligand [3H]SB-202190 binding to CSBP kinase in human monocytic cell line, THP-1

| Compound | Change (Mus musculus) [%] | IC50 [1] [nM] | IC50 [2] [nM] | IC50 (MAP kinase p38) [nM] |
| --- | --- | --- | --- | --- |
| Fc1ccc(-c2ncn(C3CC3)c2-c2ccncc2)cc1 | -79 | 16000 | 60000 | 80 |
| Nc1cc(-c2c(-c3ccc(F)cc3)ncn2CCCN2CCOCC2)ccn1 | -38 | – | – | 1180 |
| Fc1ccc(-c2ncn(CCCN3CCCC3)c2-c2ccncc2)cc1 | -17 | – | – | 340 |
| Cc1cc(-c2c(-c3ccc(F)cc3)ncn2CCCN2CCOCC2)ccn1 | -37 | – | – | 3050 |
| COC(=O)CCCn1cnc(-c2ccc(F)cc2)c1-c1ccncc1 | -33 | – | – | 290 |
| CSc1ccc(-c2nc(-c3cccc(F)c3)c(-c3ccncc3)[nH]2)cc1 | – | – | – | 340 |
| FC(F)(F)c1cc(-c2ncn(CCCN3CCOCC3)c2-c2ccncc2)cc(C(F)(F)F)c1 | – | – | – | 114000 |
| Clc1cccc(-c2ncn(CCCN3CCOCC3)c2-c2ccncc2)c1 | -49 | – | – | 210 |
| CC(C)n1cnc(-c2ccc(F)cc2)c1-c1ccncc1 | -56 | – | – | 120 |
| CCOCCCn1cnc(-c2ccc(F)cc2)c1-c1ccncc1 | -29 | – | – | 100 |
| Fc1ccc(-c2ncn(CCN3CCOCC3)c2-c2ccncc2)cc1 | -25 | – | – | 760 |
| C[S+]([O-])c1ccc(-c2nc(-c3ccc(F)cc3)c(-c3ccncc3)[nH]2)cc1 (stereo not drawn) [SB-203580] | -83 | – | – | – |
| FC(F)(F)c1cccc(-c2ncn(CCCN3CCOCC3)c2-c2ccncc2)c1 | – | – | – | 460 |
| FC(F)(F)c1ccc(-c2ncn(CCCN3CCOCC3)c2-c2ccncc2)cc1 | – | – | – | 2980 |
| Fc1ccc(-c2ncn(CCCN3CCOCC3)c2-c2ccnc3ccccc23)cc1 | -19 | – | – | 9000 |
| Fc1ccc(-c2ncn(CCCN3CCOCC3)c2-c2cccnc2)cc1 | – | – | – | 64700 |
| Cc1cc(-c2[nH]c(-c3ccc([S+](C)[O-])cc3)nc2-c2cccc(F)c2)ccn1 (stereo not drawn) | -64 | – | – | 370 |
| Fc1ccc(-c2ncn(CCCOc3ccccc3)c2-c2ccncc2)cc1 | -14 | – | – | 70 |
| Fc1ccc(-c2ncn(CCCSc3ccccc3)c2-c2ccncc2)cc1 | -42 | – | – | 80 |
| CSc1cccc(-c2ncn(CCCN3CCOCC3)c2-c2ccncc2)c1 | -10 | – | – | 290 |
| CSc1ccc(-n2cnc(-c3ccc(F)cc3)c2-c2ccncc2)cc1 | -20 | – | – | 1470 |
| Fc1ccc(-c2ncn(CCCCN3CCOCC3)c2-c2ccncc2)cc1 | -40 | – | – | 480 |
| CSc1cccc(-n2cnc(-c3ccc(F)cc3)c2-c2ccncc2)c1 | -23 | – | – | 120 |
| Cc1cc(-c2c(-c3ccc(F)cc3)ncn2CCCN2CCOCC2)cc(C)n1 | – | – | – | 25000 |

| Compound | Change (Mus musculus) [%] | IC50 [1] [nM] | IC50 [2] [nM] | IC50 (MAP kinase p38) [nM] |
| --- | --- | --- | --- | --- |
| C[S+]([O-])c1cccc(-c2ncn(CCCN3CCOCC3)c2-c2ccncc2)c1 (stereo not drawn) | – | – | – | 4950 |
| Fc1ccc(-c2ncn(CCCNCc3ccccc3)c2-c2ccncc2)cc1 | -43 | – | – | 70 |
| Fc1ccc(-c2ncn(CCCN3CCOCC3)c2-c2ccncc2)cc1 [SB-210313] | -55 | – | > 100000 | – |
| C[S+]([O-])c1cccc(-n2cnc(-c3ccc(F)cc3)c2-c2ccncc2)c1 (stereo not drawn) | -20 | – | – | 520 |
| CSc1ccc(-c2nc3n(c2-c2ccncc2)CCC3)cc1 | – | 100000 | 3000 | – |
| CSCCCn1cnc(-c2ccc(F)cc2)c1-c1ccncc1 | -49 | – | – | 190 |
| Fc1ccc(-c2nc3n(c2-c2ccncc2)CCS3)cc1 | – | 5400 | 10000 | – |
| CC(C)(C)n1cnc(-c2ccc(F)cc2)c1-c1ccncc1 | -35 | – | – | 4740 |
| CS(=O)(=O)CCCn1cnc(-c2ccc(F)cc2)c1-c1ccncc1 | – | – | – | 510 |
| Fc1ccc(-c2ncn(CCCN3CCOCC3)c2-c2ccccn2)cc1 | – | – | – | 6460 |
| C[S+]([O-])CCCn1cnc(-c2ccc(F)cc2)c1-c1ccncc1 (stereo not drawn) | -43 | – | – | 1400 |
| CCN(CC)CCCn1cnc(-c2ccc(F)cc2)c1-c1ccncc1 | -21 | – | – | 270 |
| Clc1ccc(-c2ncn(CCCN3CCOCC3)c2-c2ccncc2)cc1Cl | -73 | > 100000 | > 100000 | 320 |
| C[S+]([O-])c1ccccc1-n1cnc(-c2ccc(F)cc2)c1-c1ccncc1 (stereo not drawn) | 40 | – | – | 710 |
| NCCCn1cnc(-c2ccc(F)cc2)c1-c1ccncc1 | – | – | – | 150 |
| O=S(=O)(CCCn1cnc(-c2ccc(F)cc2)c1-c1ccncc1)c1ccccc1 | -42 | – | – | 1810 |
| [O-][S+](CCCn1cnc(-c2ccc(F)cc2)c1-c1ccncc1)c1ccccc1 (stereo not drawn) | – | – | – | 630 |
| Fc1ccc(-c2ncn(CCCN3CCOCC3)c2-c2ccnc(Cl)c2)cc1 | – | – | – | 1890 |
| CN(CCCn1cnc(-c2ccc(F)cc2)c1-c1ccncc1)Cc1ccccc1 | -28 | – | – | 130 |
| Fc1ccc(-c2nc[nH]c2-c2ccncc2)cc1 | -82 | > 100000 | > 100000 | 210 |
| CSc1ccccc1-n1cnc(-c2ccc(F)cc2)c1-c1ccncc1 | 29 | – | – | 80 |
| Fc1ccc(-c2ncn(CCCN3CCCCC3)c2-c2ccncc2)cc1 | -26 | – | – | 1170 |
| C[S+]([O-])c1ccc(-n2cnc(-c3ccc(F)cc3)c2-c2ccncc2)cc1 (stereo not drawn) | – | – | – | 750 |
| O=C(O)CCCn1cnc(-c2ccc(F)cc2)c1-c1ccncc1 | -47 | – | – | 3830 |
